Reference: patent US20110104713A1, “PRODUCTS AND PROCESSES FOR MODULATING PEPTIDE-PEPTIDE BINDING DOMAIN INTERACTIONS” (priority 2002, published 2011)
“Also recorded” adds a separate entry of the source.

What was measured:
[1] = molecular target: T1, GST-BRCA1 BRCT domains (residues 1634-1863) (Homo sapiens, UniProt P38398); test: Isothermal titration calorimetry of peptides with BRCA1 tandem BRCT domains; format: binding; conditions: BRCA1; N.D.B = no detectable binding by ITC, tandem BRCT domain concentration of at least 150 μM
T1 construct: 15 μM GST-BRCA1 BRCT domains (residues 1634-1863); made in house; host or cells: E. coli DH5a
T1 sequence (P38398 1634-1863): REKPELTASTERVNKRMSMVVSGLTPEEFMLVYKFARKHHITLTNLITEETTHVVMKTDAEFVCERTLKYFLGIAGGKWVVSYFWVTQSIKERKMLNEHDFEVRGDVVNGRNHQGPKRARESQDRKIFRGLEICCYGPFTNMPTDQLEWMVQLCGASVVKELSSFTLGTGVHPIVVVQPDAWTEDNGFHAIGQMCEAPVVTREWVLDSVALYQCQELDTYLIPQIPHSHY
From the text: (§1) For deletion mapping of the PTIP and BRCA1 BRCT phospho-binding region and for expression of MDC 1, 53BP1 and Rad9 (FIG. 17-18), fragments were generated by PCR for in vitro transcription/translation and cloned into a pcDNA3.1 expression vector (Invitrogen, San Diego, Calif.). For production of recombinant GST-PTIP BRCT domains and GSTBRCA1 BRCT domains, residues 550-757 of PTIP and residues 1634-1863 of BRCA1 were ligated into the EcoRI and NotI sites of pGEX-4T1 (Pharmacia, Peapack, N.J.) and subsequently transformed into DH5a E. Coli. Protein induction occurred at 37° C. for 4 hours or at 25° C. for 16 hours in the presence of 0.4 mM IPTG. For peptide filter blot analysis and measurements of peptide binding affinity by ITC, GSTPTIP BRCT domains (residues 550-757) and GST-BRCA1 BRCT domains (residues 1634-1863) were isolated from bacterial lysates using glutathione agarose, eluted with 40 mM glutathione, and dialyzed into 50 mM Tris/HCl (pH 8.1), 300 mM NaCl. The GFP-PTIP constructs FL (residues 1-757), !BRCT (residues 1-550), or (BRCT)2 (residues 550-757) were cloned into the EcoRI and SalI sites of the pEGFP-C2 (BD Biosciences Clontech Franklin Lakes, N.J.) expression vector.
(§2) Peptides were synthesized by solid phase technique with three C-terminal lysines to enhance solubility. The peptides were then purified by reverse phase HPLC following deprotection and confirmed by MALDI-TOF mass spectrometry. Calorimetry measurements were performed using a VP-ITC microcalorimeter (MicroCal Inc., Studio City, Calif.). Experiments involved serial 10 μL injections of peptide solutions (20 μM-150 μM) into a sample cell containing 15 μM GST-PTIP BRCT domains (residues 550-757) or 15 μM GST-BRCA1 BRCT domains (residues 1634-1863) in 50 mM Tris/HCl (pH 8.1), 300 mM NaCl. Twenty injections were performed with 240 second intervals between injections and a reference power of 25 μCal/s. Binding isotherms were plotted and analyzed using ORIGIN Software (MicroCal Inc. Studio City, Calif.).

[2] = molecular target: T2, GST-PTIP tandem BRCT domains interaction with 53BP1 (Homo sapiens, UniProt Q6ZW49); test: GST-PTIP tandem BRCT pull-down of 53BP1 from irradiated U2OS cells; format: binding; conditions: 350 μM peptide or library, 1 hour at 4° C., IR treated U2OS
T2 construct: 10-20 μg of GST-PTIP BRCT domains (residues 550-757); made in house; host or cells: E. coli DH5a (GST-PTIP BRCT); 53BP1 endogenous from U2OS lysate
T2 sequence (Q6ZW49 862-1069): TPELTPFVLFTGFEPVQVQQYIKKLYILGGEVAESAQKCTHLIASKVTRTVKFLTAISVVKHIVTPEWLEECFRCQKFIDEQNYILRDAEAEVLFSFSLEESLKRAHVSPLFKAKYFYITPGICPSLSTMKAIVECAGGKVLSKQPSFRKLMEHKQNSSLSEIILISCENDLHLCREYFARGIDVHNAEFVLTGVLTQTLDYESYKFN
Experimental: (§3) U2OS cells were either treated with 10 Gy of ionizing radiation or mock irradiated and allowed to recover for 30-120 minutes. Cells were subsequently lysed in 50 mM Tris/HCl (pH7.6), 150 mM NaCl, 1.0% NP-40, 5 mM EDTA, 2 mM DTT, 8 μg/mL pepstatin, 8 μg/mL aprotinin, 8 μg/mL leupeptin, 2 mM Na3VO4, 10 mM NaF, 1 μM microcystin. The lysates (0.5-2 mg) were incubated with 20 μL glutathione beads containing 10-20 μg of GST-PTIP BRCT domains (residues 550-757), GST-BRCA1 BRCT domains (residues 1634-1863), or GST for 120 minutes at 4° C. Beads were washed three times with lysis buffer. Precipitated proteins were eluted in sample buffer and detected by blotting with anti-ATM/ATR substrate (pSer/pThr)Gln antibody (CELL SIGNALING TECHNOLOGY, Inc Beverly, Mass.), polyclonal anti-53BP1 (ONCOGENE […] PRODUCTS, San Diego, Calif. 92121), or monoclonal anti-HA (COVANCE Inc, Princeton, N.J.). For peptide competition experiments, GST-PTIP BRCT domains or GST-BRCA1 BRCT domains were immobilized on glutathionine beads and preincubated with 350 μM of BRCTtide-optimal, 7pT, 7T, pSQ-library, SQ-library, or pTP-library for 1 hour at 4° C. and washed three times with lysis buffer.

[3] = molecular target: T3, GST-PTIP BRCT domains (residues 550-757) (Homo sapiens, UniProt Q6ZW49); test: Isothermal titration calorimetry of peptides with PTIP tandem BRCT domains; format: binding; conditions: PTIP; N.D.B = no detectable binding by ITC, tandem BRCT domain concentration of at least 150 μM
T3 construct: 15 μM GST-PTIP BRCT domains (residues 550-757); made in house; host or cells: E. coli DH5a
T3 sequence (Q6ZW49 862-1069): as above
From the text: as §1, §2

[4] = molecular target: T4, GST-BRCA1 tandem BRCT domains interaction with phosphoproteins (Homo sapiens, UniProt P38398); test: GST-BRCA1 tandem BRCT pull-down of DNA damage-induced phosphoproteins from irradiated U2OS cells; format: binding
T4 construct: 15 μM GST-BRCA1 BRCT domains (residues 1634-1863); made in house; host or cells: E. coli DH5a
T4 sequence (P38398 1634-1863): as the sequence (P38398 1634-1863) above
Experimental: as §3

[5] = tested on: GST-PTIP tandem BRCT domains interaction with 53BP1; test: GST-PTIP tandem BRCT pull-down of 53BP1 from irradiated U2OS cells; format: binding, human; conditions: 25 mM caffeine prior to irradiation, U2OS
Experimental: as §3

Kd (N.D.B.) [1] | effect of bead pre-incubation with peptide/library on PTIP BRCT interaction with 53BP1 [2] | effect of bead pre-incubation with peptide/library on PTIP BRCT interaction with 53BP1 ([2]; listed as non-phosphorylated counterpart) | Kd (N.D.B.) [3] | Compound | effect of pre-incubation with peptide/library on BRCA1 BRCT binding to (pSer or pThr)-Gln-containing proteins ([4]; 350 μM peptide or library, U2OS lysates after 10 Gy) | effect of caffeine treatment of cells on PTIP BRCT interaction with 53BP1 [5] | effect of caffeine pre-treatment of cells on BRCA1 BRCT binding to (pSer or pThr)-Gln-containing proteins ([4]; caffeine prior to γ-irradiation, U2OS)
N.D.B. | not | not eliminated | N.D.B. | GAAYDITQVFPFAKKK [BRCTtide-7T] | not |  | 
 |  |  |  | Cn1c(=O)c2c(ncn2C)n(C)c1=O [caffeine, reference compound] |  | disrupted the interaction; also recorded: eliminated | largely eliminated
